Measurements taken from publication PMC6275946 (ACS Omega, 2018).

What was measured:
[1] = molecular target: T1, SHP1 (Src-homology-2-domain containing protein tyrosine phosphatase 1) (Homo sapiens, UniProt P29350); test: pNPP phosphatase assay, […] compound, […] h preincubation at […] °C; assay type: biochemical
T1 sequence (P29350 244-515 limits assumed): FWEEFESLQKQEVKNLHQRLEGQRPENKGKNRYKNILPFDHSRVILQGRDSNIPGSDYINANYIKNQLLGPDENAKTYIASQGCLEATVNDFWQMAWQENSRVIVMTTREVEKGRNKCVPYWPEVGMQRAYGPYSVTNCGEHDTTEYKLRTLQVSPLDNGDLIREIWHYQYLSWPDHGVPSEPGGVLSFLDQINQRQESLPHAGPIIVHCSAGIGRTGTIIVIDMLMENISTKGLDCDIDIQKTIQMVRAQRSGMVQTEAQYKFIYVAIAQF

[2] = molecular target: SHP2 (Src-homology-2-domain-containing PTP 2) (Homo sapiens, UniProt Q06124); test: LC-MS/MS of covalent cysteine labeling; assay type: biochemical
Sequence of SHP2 (Src-homology-2-domain-containing PTP 2) (Q06124 1-541): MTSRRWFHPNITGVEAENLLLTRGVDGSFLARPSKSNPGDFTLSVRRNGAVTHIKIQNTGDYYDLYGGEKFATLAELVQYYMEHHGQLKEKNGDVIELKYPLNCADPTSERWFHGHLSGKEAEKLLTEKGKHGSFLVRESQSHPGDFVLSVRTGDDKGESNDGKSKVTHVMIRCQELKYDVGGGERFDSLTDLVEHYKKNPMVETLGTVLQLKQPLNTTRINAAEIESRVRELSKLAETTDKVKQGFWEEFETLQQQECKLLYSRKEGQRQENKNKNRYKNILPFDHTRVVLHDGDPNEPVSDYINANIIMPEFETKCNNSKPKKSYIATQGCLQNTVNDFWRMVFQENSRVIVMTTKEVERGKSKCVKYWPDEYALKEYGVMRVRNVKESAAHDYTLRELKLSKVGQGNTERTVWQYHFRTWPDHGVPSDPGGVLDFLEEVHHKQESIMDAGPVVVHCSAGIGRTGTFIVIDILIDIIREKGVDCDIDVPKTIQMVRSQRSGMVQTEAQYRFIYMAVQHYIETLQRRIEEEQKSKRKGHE

IC50 [2]: ~35 µM
Structure (SMILES): C=CC(=O)Nc1ccnc2ccccc12 [compound 12, N-(Quinolin-4-yl)prop-2-enamide]
pNPP phosphatase assay, 50 μM compound, 4 h preincubation at 37 °C [1]: the only two human PTPs that have cysteine at this position, SHP2 and SHP1, are sensitive to inhibition
